In US11969459B2, “Therapeutic agent for cardiomyopathy, old myocardial infarction and chronic heart failure” (StemRIM Inc., priority 2017, dated 2024):

How the values were obtained:
[1] = test system: J2N-k hamsters; assay: Efficacy evaluation in dilated cardiomyopathy model (Example 1); format: in vivo, hamster
Source text: J2N-k hamsters (18-week-old, male, 20 animals in total), which are model animals of dilated cardiomyopathy, were obtained from Japan SLC, acclimated for 2 weeks, and then used for experiments. J2N-k hamsters spontaneously develop dilated cardiomyopathy due to deletion mutations in the […] gene (specifically, cardiomyocyte shedding and fibrosis begin around 5 weeks of age, cardiomegaly and cardiac dysfunction appear at approximately 20 weeks of age, and eventually they die of congestive heart failure at approximately 1 year. J Biochem. 2003 August; 134(2):269-76). Also, a peptide consisting of amino acid residues 1-44 (SEQ ID NO: 1) of the human HMGB1 protein was chemically synthesized by a solid-phase method. Hereinafter, the peptide is referred to as the HMGB1 peptide (1-44), and is abbreviated as “1-44” in the drawing corresponding to the Examples.
J2N-k hamsters were divided into the HMGB1 peptide (1-44)-treated (n=10) and PBS-treated (control, n=10) groups, and treatment was begun at 20 weeks of age (body weight about 120 g). Administration of the test substance was carried out by injecting a solution of the HMGB1 peptide (1-44), which has been adjusted to a concentration of 1 mg/ml with PBS as the vehicle, into the external jugular vein at a dose of 3 ml/kg (3 mg/kg as the peptide dosage) once a day for four consecutive days. In the control group, PBS was injected into the external jugular vein at a dose of 3 ml/kg once a day for four consecutive days. At 6 weeks after administration, a thoracotomy was performed under deep anesthesia, and the heart was removed. The mid portion of the heart was divided for cryopreservation and for paraffin fixation, and a histopathological examination was performed. Molecular biological studies were also performed using apical myocardium to evaluate effects of administration of the HMGB1 peptide (1-44).
Echocardiography was performed prior to dosing, and at 4 and 6 weeks after dosing; and left ventricular end-diastolic diameter (LVDd), left ventricular end-systolic diameter (LVDs), and left ventricular ejection fraction (LVEF) were measured and calculated to perform a cardiac function assessment. […]
Periodic Acid Schiff (PAS) staining of the myocardial tissue sections was performed to measure the short diameter of cardiomyocytes retaining a nuclear architecture, and the average of the measurements was obtained. This measurement was performed in five different fields and the mean value was calculated.
Immunostaining of the myocardial tissue sections was performed using antibodies against PDGFRα and CD29, which are surface markers of mesenchymal stem cells, to assess whether accumulation of mesenchymal stem cells was observed. Staining of the nuclei was performed using DAPI. […]
The structure of cardiomyocytes was observed by electron microscopy. Specifically, the full-thickness myocardium of the mid-portion was sampled, and subjected to pre-fixation with ½ Karnofsky, post-fixation with 2% osmium tetroxide, block-staining with 0.5% uranium acetate aqueous solution and dehydration with ethanol, and then embedded and polymerized by infiltrating epoxy resin (Queto1812). Ultrathin sections (70-110 nm) were made, and electron staining with uranium acetate and a lead stain solution was performed, and then observed by electron microscopy (H-7500, Hitachi High Technologies).

[2] = test system: old myocardial infarction model rats; assay: Efficacy evaluation in old myocardial infarction model rats (Example 3); format: in vivo, SD rats
Experimental: SD rats (7-week-old, male, body weight of approximately 250 g) were anesthetized with the inhalation anesthetic sevofrane (or isoflurane) and intubated endotracheally after adequate suppression was achieved, and deep anesthesia was maintained with the inhalation anesthetic. A thoracotomy was performed in the supine position at the left fourth intercostal space, and the proximal portion of the left anterior descending coronary artery was ligated with 6-0 prolene sutures to create a broad-area myocardial infarction model. The cardiac function was evaluated by echocardiography 2 weeks after the infarction was made, and cases in which extensive infarction was obtained (LVEF<50%) were used as old myocardial infarction model rats (17 animals in total). Similar to the above examples, the HMGB1 peptide (1-44) consisting of SEQ ID NO: 1 was used.
The old myocardial infarction model rats were divided into the HMGB1 peptide (1-44)-treated group (n=9) and the PBS-treated group (control, n=8), and treatment was begun 2 weeks after the infarction was made. Administration of the test substance was carried out by injecting a solution of the HMGB1 peptide (1-44), which has been adjusted to a concentration of 1 mg/ml with PBS as vehicle, into the femoral veins at a dose of 3 ml/kg (3 mg/kg as the peptide dosage) once daily for four consecutive days. In the control group, PBS was injected at a dose of 3 ml/kg once a day via the femoral vein for four consecutive days. At 4 weeks after dosing, the heart was removed by re-thoracotomy under deep anesthesia. […] Both groups were comparatively studied using cardiac physiological, histopathological, and molecular biological techniques to evaluate the effects of administering the HMGB1 peptide (1-44). The condition after 2 weeks (14 days) or more have passed following the onset of myocardial infarction in model rats is equivalent to the condition after 30 days or more have passed following the onset of myocardial infarction in humans.
Echocardiography was performed at 1, 2, and 4 weeks after dosing, and the left ventricular end-diastolic diameter (LVDd), left ventricular end-systolic diameter (LVDs), and left ventricular ejection fraction (LVEF) were measured and calculated to perform a cardiac function assessment.
Myocardial tissue sections were stained with Sirius red, and the proportion of stain-positive area in the total area of the left ventricular myocardium was calculated as the percentage of fibrosis (%).
Von-Willebrand factors were stained at the infarct border to determine the number of blood vessels (number of vascular endothelial cells). This measurement was performed in 10 different fields and the mean value was calculated.
Periodic Acid Schiff (PAS) staining was performed at the infarct border, and the short diameter of cardiomyocytes retaining a nuclear architecture at the infarct border was measured, and the average of the measurements was obtained. This measurement was performed in 10 different fields and the mean value was calculated.
Staining of the nuclei was performed using DAPI.

[3] = test system: J2N-k hamsters; assay: Efficacy evaluation in dilated cardiomyopathy model, long-term observations (Example 2); format: in vivo, hamster; details: vs PBS group
Experimental: As in Example 1, twenty J2N-k hamsters were prepared and divided into the HMGB1 peptide (1-44)-treated group (n=11) and the PBS-treated group (control, n=9), and treatment was begun at 20 weeks of age. Administration of the test substance was carried out by injecting a solution of the HMGB1 peptide (1-44), which has been adjusted to a concentration of 1 mg/ml with PBS as the vehicle, into the external jugular vein at a dose of 3 ml/kg (3 mg/kg as the peptide dosage) once daily for four consecutive days. In the control group, PBS was injected into the external jugular vein at a dose of 3 ml/kg once a day for four consecutive days. Evaluation of the cardiac function and survival rate was continued thereafter while rearing the hamsters under normal conditions.
Echocardiography was performed prior to dosing, at 4 weeks after dosing, and every 2 weeks thereafter to measure LVEF.
After the last dose, the animals were kept under normal conditions and the survival rate was evaluated.

[4] = test system: Dahl salt-sensitive rats (DIS/Eis rats); assay: Efficacy evaluation in hypertensive cardiomyopathy model (Example 4); format: in vivo, rat; details: High-1-44 vs High-PBS group
Source text: The Dahl salt-sensitive rats (hereafter also referred to as DIS/Eis rats) were used in the experiments. DIS/Eis rats are hypertensive when fed with a high-salt diet and are a model that develop heart failure at a high incidence (e.g., when fed with a diet supplemented with 8% NaCl from 6 weeks of age, blood pressure reaches 250 mm Hg at 9 weeks of age, death begin to appear from 12 weeks of age, and death is highly probable by 16 weeks of age).
Ten DIS/Eis rats (6-weeks-old, male, body weight about 200 g, Japan SLC) were prepared and divided into two groups, a high-salinity diet group (n=7) and a low-salinity diet group (n=3), and feeding was continued until 15 weeks of age in which the former was fed with a diet supplemented with 8% NaCl and the latter was fed with a diet supplemented with 0.3% NaCl. Aside from the meals, nothing interfered with free movement and they were kept clean and rested without restriction on drinking water, feeding, and such in their cages.
At 11 weeks of age, the high-salinity diet group (n=7) was divided into the HMGB1 peptide (1-44)-treated group (n=3) and the control group (n=4), and treatment was initiated. Administration of the test substance was carried out by injecting a solution of the HMGB1 peptide (1-44), which has been adjusted to a concentration of 1 mg/ml with PBS as the vehicle, into the tail vein at a dose of 3 ml/kg (3 mg/kg as the peptide dosage) once daily for four consecutive days. The control group was injected with PBS at a dose of 3 ml/kg once a day via the tail vein for four consecutive days. Similar to the control group, the low-salinity diet group (n=3) also received PBS via the tail vein for four consecutive days. At 4 weeks after dosing (at 15 weeks, of age), hearts were removed from the rats by thoracotomy under general anesthesia, and their weight was measured, and then histological sections of the left ventricular myocardial cross sections were prepared at the papillary muscle level and subjected to histological analysis. In the following description, the HMGB1 peptide (1-44) administration group fed with a high-salinity diet is abbreviated as the “High-1-44 group”; the control group fed with a high-salinity diet is abbreviated as the “High-PBS group” and the low-salinity diet group is abbreviated as the “Low-PBS group”.
At 15 weeks of age, hearts were removed from rats in each group and weighed. […]
Myocardial tissue sections were stained with Sirius red, and the proportion of stain-positive area in the area of the whole heart or the left ventricle was calculated as the percentage of fibrosis (%).

[5] = 4 and 6 weeks after dosing, 3 mg/kg i.v. x4 days, vs PBS group
[6] = apical myocardium, vs PBS group
[7] = 4 weeks after dosing, vs PBS group
[8] = immunostaining of myocardial tissue
[9] = infarct border, vs PBS group, P=0.05

Substance: HMGB1 peptide (1-44): peptide consisting of amino acid residues 1-44 (SEQ ID NO: 1) of the human HMGB1 protein, chemically synthesized by a solid-phase method (MGKGDPKKPRGKMSSYAFFVQTCREEHKKKHPDASVNFSEFSKK)
- left ventricular end-diastolic diameter (LVDd) [1, 5]: no significant differences
- left ventricular end-systolic diameter (LVDs) [1, 5]: no significant differences
- TSG-6 expression level (RT-PCR) [1, 6]: significantly higher
- VEGF expression level (RT-PCR) [1, 6]: significantly higher
- short diameter of cardiomyocytes (PAS staining) ([1]; both subendocardial layer and mid layer, 6 weeks after administration, vs PBS group): significantly smaller
- left ventricular ejection fraction (LVEF) ([1]; echocardiography 4 and 6 weeks after dosing, 3 mg/kg external jugular vein once a day for four days, compared with PBS group): significantly higher
- recruitment of cells positive for both PDGFRα and CD29 to the myocardial tissue ([1]; immunostaining of myocardial tissue sections): recruited
- number of PDGFRα-positive and CD29-positive cells in the myocardial tissue ([1]; immunostaining, vs PBS group): significantly more
- mitochondrial cristae structure of cardiomyocytes (electron microscopy) ([1]; loss of cristae structure in PBS group): cristae structure was maintained
- number of blood vessels (anti-CD31 immunostaining), mid layer ([1]; mid layer, 6 weeks after administration, vs PBS group): significantly higher
- percentage of Sirius red stain-positive area (myocardial fibrosis) ([1]; myocardial tissue sections 6 weeks after administration, vs PBS group): significantly smaller
- number of blood vessels (anti-CD31 immunostaining), subendocardial layer ([1]; subendocardial layer, 6 weeks after administration, vs PBS group): tended to be higher
- left ventricular ejection fraction (LVEF) ([2]; 4 weeks after dosing, 3 mg/kg femoral vein once daily for four days, begun 2 weeks after infarction, vs PBS group): significantly higher
- left ventricular end-diastolic diameter (LVDd) [2, 7]: smaller values
- left ventricular end-systolic diameter (LVDs) [2, 7]: smaller values
- recruitment of cells positive for both PDGFRα and CD90 near the infarct border [2, 8]: recruited
- recruitment of cells positive for both PDGFRα and CD105 near the infarct border [2, 8]: recruited
- PDGFRα-positive and CD90-positive cells in the vicinity of the infarct border ([2]; immunostaining, vs PBS group): more
- number of vessels at the infarct border (von-Willebrand factor staining) [2, 9]: significantly more vessels
- short diameter of cardiomyocytes at the infarct border (PAS staining) [2, 9]: significantly smaller
- percentage of Sirius red stain-positive area (myocardial fibrosis) ([2]; left ventricular myocardium, 4 weeks after dosing, vs PBS group): significantly smaller
- average improvement in LVEF with respect to before the dosing ([2]; up to 4 weeks after dosing): about 7%
- survival rate (viability) ([3]; long-term observations): tendency toward higher viability
- LVEF, long-term ([3]; until 6 weeks after administration, 3 mg/kg i.v. x4 days): remained significantly higher
- end-diastolic left ventricular anterior wall thickness (LVAWd) ([4]; 15 weeks of age): smaller
- heart weight ([4]; 15 weeks of age, high-salinity diet, 3 mg/kg tail vein once daily for four days from 11 weeks of age): smaller heart weights
- percentage of fibrosis in the left ventricle ([4]; left ventricle): smaller
- percentage of Sirius red-stained positive area (percentage of fibrosis) in the whole heart ([4]; whole heart): smaller
